Measurements as given in patent US20120015090A1, “READILY WATER-SOLUBLE MYRICITRIN COMPOSITION” (SAN-EI GEN F.F.I., INC., priority 2009, published 2012).

Experiments:
[1] = Fading suppressing effect, fluorescent light irradiation (Experiment Example 5); details: pH 3.1, final MY 0.003%, γ-CD 0.01%, EMIQ […]
Protocol: (§1) Specifically, a colorant-containing acidic drink of the formulation below was prepared. Then, a 3% MY preparation (product name: SanMelin**Y-AF*) and a MY/γ-CD inclusion product (MY: γ-CD=1:1.2) (containing 3% myricitrin) prepared in Example 2 were added to the drink to a final MY concentration of 0.003% or to a final γ-CD (Wacker Chemical) concentration of 0.01%.
(§2) The drinks were irradiated with a UV Fade Meter (UV Long-Life Fade Meter FAL-3, Suga Test Instruments Co., Ltd.) or a fluorescent light (BIOTRON LH 300, NK System) for the durations presented in Tables 6 and 7. Absorbance was measured before and after the irradiation, and the percentage of remaining color (%) after the irradiation was calculated. Further, as a control test, a colorant-containing acidic drink was irradiated with the UV Fade Meter or fluorescent light as above without adding anything (no addition), and the percentage of remaining color (%) after the irradiation was calculated.

[2] = Flavor deterioration suppressing effect, sensory evaluation of drinks after light or heat stress test (Experiment Example 6); parameters: key: 1 = no-addition blank drink, 5 = drink before the test; details: added 0.1% (γ-CD 0.01%)
Protocol: Various drinks mixed with the MY or MY composition were subjected to a light or heat stress test (accelerated test) to evaluate the flavor deterioration suppressing effect of the MY or MY composition.
Specifically, eight drinks were prepared in the formulations 1 to 8 below. Then, a 3% MY preparation (product name: SanMelin**Y-AF*), a MY/γ-CD inclusion product preparation (MY: γ-CD=1:1.2) (containing 3% MY) prepared in Example 2, a MY/γ-CD inclusion product preparation (MY: γ-CD=1:1.2) (containing 6% MY) prepared in Example 3, and γ-CD (Wacker Chemical) were added thereto in the final concentrations shown in FIG. 10.
The drinks prepared as above were tested under the severity conditions presented in Table 10, and changes in drink flavor after the test were examined by six panelists in a sensory evaluation. Evaluations were made according to the following criteria on a scale of 1 (a drink with no addition (blank)) to 5 (each drink before the test).
Table 10 presents mean values of the scored points evaluated by the six panelists.

[3] = Fading suppressing effect, UV Fade Meter irradiation (Experiment Example 5); details: pH 3.1, final MY 0.003%, γ-CD 0.01%, EMIQ […]
Protocol: as §1, §2

percentage of remaining color (%) ([1]; Cochineal colorant 0.05%, fluorescent light 1 D): 64.2%
percentage of remaining color (%) ([1]; Elderberry colorant 0.05%, fluorescent light 6 D): 63.8%
percentage of remaining color (%) ([1]; Gardenia blue colorant 0.05%, fluorescent light (time not given)): 58.4%
percentage of remaining color (%) ([1]; Monascus colorant, fluorescent light 4 D): 38.7%
percentage of remaining color (%) ([1]; Paprika colorant 0.05%, fluorescent light 6 D): 71.2%
percentage of remaining color (%) ([1]; Purple corn colorant 0.05%, fluorescent light 2 D): 65.5%
percentage of remaining color (%) ([1]; Purple sweet potato colorant 0.05%, fluorescent light 6 D): 80.4%
percentage of remaining color (%) ([1]; Red cabbage colorant 0.05%, fluorescent light 4 D): 62.8%
percentage of remaining color (%) ([1]; Safflower yellow colorant 0.05%, fluorescent light 6 D): 68.1%
percentage of remaining color (%) ([1]; β-carotene 0.05%, fluorescent light 1 D): 67.4%
percentage of remaining color (%) ([3]; Cochineal colorant 0.05%, UV Fade Meter 6 H): 64.3%
percentage of remaining color (%) ([3]; Elderberry colorant 0.05%, UV Fade Meter 2 H): 68.5%
percentage of remaining color (%) ([3]; Gardenia blue colorant 0.05%, UV Fade Meter 19 H): 68.6%
percentage of remaining color (%) ([3]; Grape juice colorant 0.1%, UV Fade Meter 2 H): 75.0%
percentage of remaining color (%) ([3]; Monascus colorant, UV Fade Meter 3 H): 30.2%
percentage of remaining color (%) ([3]; Paprika colorant 0.05%, UV Fade Meter 3 H): 50.3%
percentage of remaining color (%) ([3]; Purple corn colorant 0.05%, UV Fade Meter 4 H): 72.8%
percentage of remaining color (%) ([3]; Purple sweet potato colorant 0.05%, UV Fade Meter 7 H): 46.5%
percentage of remaining color (%) ([3]; Red cabbage colorant 0.05%, UV Fade Meter 10 H): 53.9%
percentage of remaining color (%) ([3]; Safflower yellow colorant 0.05%, UV Fade Meter 4 H): 48.6%
percentage of remaining color (%) ([3]; β-carotene 0.05%, UV Fade Meter 17 H): 68.5%
SMILES: OC[C@H]1O[C@@H]2O[C@H]3[C@H](O)[C@@H](O)[C@@H](O[C@H]4[C@H](O)[C@@H](O)[C@@H](O[C@H]5[C@H](O)[C@@H](O)[C@@H](O[C@H]6[C@H](O)[C@@H](O)[C@@H](O[C@H]7[C@H](O)[C@@H](O)[C@@H](O[C@H]8[C@H](O)[C@@H](O)[C@@H](O[C@H]9[C@H](O)[C@@H](O)[C@@H](O[C@H]1[C@H](O)[C@H]2O)O[C@@H]9CO)O[C@@H]8CO)O[C@@H]7CO)O[C@@H]6CO)O[C@@H]5CO)O[C@@H]4CO)O[C@@H]3CO [γ-CD, γ-cyclodextrin]
flavor change score, mean of six panelists ([2]; Coffee, Fluorescent light (20000 lx, 16 hr, 15° C.), scale 1 to 5): 2.4
flavor change score, mean of six panelists ([2]; Grape drink, Fluorescent light (20000 lx, 15 hr, 15° C.), scale 1 (blank) to 5 (before test)): 1.6
flavor change score, mean of six panelists ([2]; Grapefruit drink (20% fruit juice), Fade Meter ([…]), scale 1 to 5): 2.2
flavor change score, mean of six panelists ([2]; Grapefruit drink (20% fruit juice), Fluorescent light (20000 lx, 21 hr, 10° C.), scale 1 to 5): 2.0
flavor change score, mean of six panelists ([2]; Grapefruit drink (20% fruit juice), Heat (55° C., 64 hr), scale 1 to 5): 2.8
flavor change score, mean of six panelists ([2]; Grapefruit drink (100% fruit juice), Fluorescent light (20000 lx, 18 hr, 15° C.), scale 1 to 5): 2.1
flavor change score, mean of six panelists ([2]; Lemon drink, Fluorescent light (20000 lx, 21 hr, 10° C.), scale 1 to 5): 2.2
flavor change score, mean of six panelists ([2]; Milk tea, Fluorescent light (20000 lx, 18 hr, 15° C.), scale 1 to 5): 2.3
flavor change score, mean of six panelists ([2]; Orange drink (20% fruit juice), Fluorescent light (20000 lx, 18 hr, 15° C.), scale 1 to 5): 2.3
flavor change score, mean of six panelists ([2]; Sour milk beverage, Fluorescent light (20000 lx, 18 hr, 15° C.), scale 1 to 5): 2.7
